≈ marks a conversion by molar mass, not a printed value. Like-named read-outs stand apart in the source and are kept apart here.
How the values were obtained:
Format in all cases: cell-based
P. acnes 6390 = test: MIC, anaerobic bacteria, microbroth dilutions in Wilkins Chalgren Broth; settings: Cutibacterium acnes, pathogens for skin infections, read-out: Minimum Inhibitory Concentration (MIC) P. acnes 6390
Experimental: (§1) Antimicrobial susceptibility testing was performed in accordance with the Clinical and Laboratory Standards Institute (CLSI). Streptococci (S. pneumoniae, S. pyogenes, S. viridans) were tested following the CLSI methodology with the exception that Todd Hewitt Broth without blood was used. Anaerobic bacteria (P. acnes, B. distasonis) were tested following CLSI (formerly NCCLS) guidelines except for using microbroth dilutions in Wilkins Chalgren Broth. National Committee for Clinical Laboratory Standards (NCCLS). Methods for Anti-microbial Susceptibility Testing of Anaerobic Bacteria; Approved Standard—Sixth Edition (2004). NCCLS document M11-A6.

B. distasonis 5770 = test: as above; settings: Parabacteroides distasonis, pathogens for gastro-intestinal infections, read-out: Minimum Inhibitory Concentration (MIC) B. distasonis 5770
Experimental: as §1

S. pyogenes GAS-1 = test: MIC, CLSI methodology with Todd Hewitt Broth without blood; settings: for MIC: Streptococcus pyogenes, GAS1, pathogens for ocular infections, read-out: Minimum Inhibitory Concentration (MIC) S. pyogenes GAS-1; for Minimum Inhibitory Concentration (MIC) S. pyogenes GAS-1: pathogens for skin infections
Experimental: as §1, with “(CLSI). Clinical and Laboratory Standards Institute (CLSI; formerly NCCLS): Methods for Dilution Antimicrobial Susceptibility Tests for Bacteria That Grow Aerobically; Approved Standard—Seventh Edition (2006). Clinical and Laboratory Standards Institute document M7-A7.” for “(CLSI).”

S. pneumoniae 1/1 = test: as above; settings: Streptococcus pneumoniae, pathogens for ocular infections, read-out: Minimum Inhibitory Concentration (MIC) S. pneumoniae 1/1
Experimental: as §1, with “(CLSI). Clinical and Laboratory Standards Institute (CLSI; formerly NCCLS): Methods for Dilution Antimicrobial Susceptibility Tests for Bacteria That Grow Aerobically; Approved Standard—Seventh Edition (2006). Clinical and Laboratory Standards Institute document M7-A7.” for “(CLSI).”

S. viridans UHC 7 = test: as above; settings: Streptococcus viridans, UHC7; pathogens for dental infections; read-out: Minimum Inhibitory Concentration (MIC) S. viridans UHC 7
Experimental: as §1, with “(CLSI). Clinical and Laboratory Standards Institute (CLSI; formerly NCCLS): Methods for Dilution Antimicrobial Susceptibility Tests for Bacteria That Grow Aerobically; Approved Standard—Seventh Edition (2006). Clinical and Laboratory Standards Institute document M7-A7.” for “(CLSI).”

E. faecalis VanB E80-8 = test: MIC, broth dilution antimicrobial susceptibility testing (CLSI); settings: for MIC: Enterococcus faecalis, VANBE808, pathogens for skin infections, read-out: Minimum Inhibitory Concentration (MIC) E. faecalis VanB E80-8; for Minimum Inhibitory Concentration (MIC) E. faecalis VanB E80-8: pathogens for gastro-intestinal infections
Experimental: (§2) Antimicrobial susceptibility testing was performed in accordance with the Clinical and Laboratory Standards Institute (CLSI).
(§3) Clinical and Laboratory Standards Institute (CLSI; formerly NCCLS): Methods for Dilution Antimicrobial Susceptibility Tests for Bacteria That Grow Aerobically; Approved Standard—Seventh Edition (2006). Clinical and Laboratory Standards Institute document M7-A7.

S. aureus ATCC 25923 = test: as above; settings: Staphylococcus aureus, ATCC25923
Experimental: as §2, §3

S. epidermidis MRSE 70 = test: as above; settings: for MIC: Staphylococcus epidermidis, MRSE, pathogens for nasal colonization, read-out: Minimum Inhibitory Concentration (MIC) S. epidermidis MRSE 70
Experimental: as §2, §3

S. aureus MRSA 101 = test: as above; settings: for MIC: Staphylococcus aureus, MRSA, pathogens for nasal colonization, read-out: Minimum Inhibitory Concentration (MIC) S. aureus MRSA 101; for Minimum Inhibitory Concentration (MIC) S. aureus MRSA 101: pathogens for ocular infections
Experimental: as §2, §3

S. aureus MRSA 39 = test: as above; settings: for MIC: Staphylococcus aureus, MRSA, pathogens for nasal colonization, read-out: Minimum Inhibitory Concentration (MIC) S. aureus MRSA 39
Experimental: as §2, §3

[1] = pathogens for nasal colonization, read-out: Minimum Inhibitory Concentration (MIC) S. aureus ATCC 25923
[2] = pathogens for ocular infections, read-out: Minimum Inhibitory Concentration (MIC) S. aureus 25923
[3] = pathogens for ocular infections

SMILES | MIC (P. acnes 6390) [µg/mL] | MIC (B. distasonis 5770) [µg/mL] | MIC (S. pyogenes GAS-1) [µg/mL] | Minimum Inhibitory Concentration (MIC) S. pyogenes GAS-1 (S. pyogenes GAS-1) [micrograms/ml] | MIC (S. pneumoniae 1/1) [µg/mL] | MIC (S. viridans UHC 7) [µg/mL] | MIC (E. faecalis VanB E80-8) [µg/mL] | Minimum Inhibitory Concentration (MIC) E. faecalis VanB E80-8 (E. faecalis VanB E80-8) [micrograms/ml] | MIC (S. aureus ATCC 25923; [1]) [µg/mL] | MIC (S. aureus ATCC 25923; [2]) [µg/mL] | MIC (S. epidermidis MRSE 70) [µg/mL] | Minimum Inhibitory Concentration (MIC) S. epidermidis MRSE 70 (S. epidermidis MRSE 70; [3]) [micrograms/ml] | Minimum Inhibitory Concentration (MIC) S. epidermidis MRSE 70 (S. epidermidis MRSE 70; pathogens for skin infections) [micrograms/ml] | MIC (S. aureus MRSA 101) [µg/mL] | Minimum Inhibitory Concentration (MIC) S. aureus MRSA 101 (S. aureus MRSA 101) [micrograms/ml] | MIC (S. aureus MRSA 39) [µg/mL] | Minimum Inhibitory Concentration (MIC) S. aureus MRSA 39 (S. aureus MRSA 39; [3]) [micrograms/ml] | Minimum Inhibitory Concentration (MIC) S. aureus MRSA 39 (S. aureus MRSA 39; pathogens for skin infections) [micrograms/ml]
O=C(Nc1cc(F)cc(C(F)(F)F)c1)Nc1ccc(Cl)c(C(F)(F)F)c1 [Example 1, 1-(3-Fluoro-5-trifluoromethyl-phenyl)-3-(4-chloro-3-trifluoromethyl-phenyl)-urea] | ≤ 0.03 | 0.25 (≈ 0.624 µM) | 0.125 (≈ 0.312 µM) | 0.125 | 0.06 (≈ 0.15 µM) | 0.5 (≈ 1.25 µM) | 1 (≈ 2.5 µM) | 1 | 0.125 (≈ 0.312 µM) | 0.125 (≈ 0.312 µM) | 0.25 (≈ 0.624 µM) | 0.25 | 0.25 | 0.125 (≈ 0.312 µM) | 0.125 | 0.125 (≈ 0.312 µM) | 0.125 | 0.125
O=C(Nc1cc(F)cc(C(F)(F)F)c1)Nc1ccc(Br)c(C(F)(F)F)c1 [Example 2, 1-(3-Fluoro-5-trifluoromethyl-phenyl)-3-(4-bromo-3-trifluoromethyl-phenyl)-urea] | ≤ 0.03 | 0.25 (≈ 0.562 µM) | 0.06 (≈ 0.135 µM) | 0.06 | ≤ 0.03 | 0.5 (≈ 1.12 µM) | 1 (≈ 2.25 µM) | 1 | 0.125 (≈ 0.281 µM) | 0.125 (≈ 0.281 µM) | 0.5 (≈ 1.12 µM) | 0.5 | 0.5 | 0.25 (≈ 0.562 µM) | 0.25 | 0.125 (≈ 0.281 µM) | 0.125 | 0.125
Fc1cc(NC(=S)Nc2ccc(Cl)c(C(F)(F)F)c2)cc(C(F)(F)F)c1 [Example 3, 1-(3-Fluoro-5-trifluoromethyl-phenyl)-3-(4-chloro-3-trifluoromethyl-phenyl)-thiourea] | ≤ 0.03 | 0.5 (≈ 1.2 µM) | 0.5 (≈ 1.2 µM) | 0.5 | 0.5 (≈ 1.2 µM) | 2 (≈ 4.8 µM) | 2 (≈ 4.8 µM) | 2 | 0.25 (≈ 0.6 µM) | 0.25 (≈ 0.6 µM) | 0.25 (≈ 0.6 µM) | 0.25 | 0.25 | 0.25 (≈ 0.6 µM) | 0.25 | 0.25 (≈ 0.6 µM) | 0.25 | 0.25
